The values that follow come from US20140120060A1, “TREATMENT OF RHEUMATOID ARTHRITIS AND ASTHMA USING PI3 KINASE INHIBITORS” (INFINITY PHARMACEUTICALS, INC., priority 2012, published 2014).

The experiment has as its system B cell. Put plainly: B cell proliferation. It is filed as cell-based.

Molecules are shown by their SMILES.

With `Cc1ccccc1-n1c(Cn2nc(-c3ccc4nc(N)ccc4c3)c3c(N)ncnc32)cc2cccc(C)c2c1=O` [Compound 149], the EC50 was below 100 nM.

In the case of `CC(=O)Nc1nc2ccc(-c3nn(Cc4cc5cccc(C)c5c(=O)n4C4CCC4)c4ncnc(N)c34)cc2s1` [Compound 159], the EC50 is below 100 nM.

With `Cc1ccccc1-n1c(Cn2nc(-c3ccc(Cl)cc3)c3c(N)ncnc32)cc2cccc(C)c2c1=O` [Compound 49], the EC50 was below 10000 nM.

`Cc1ccccc1-n1c(Cn2nc(-c3ccc4nc(N)[nH]c4c3)c3c(N)ncnc32)cc2cccc(C)c2c1=O` [Compound 295] gave an EC50 below 100 nM.

For `Cc1cccc2cc(C(C)Nc3ncnc4[nH]cnc34)n(C3CC3)c(=O)c12` (centres unmarked) [Compound 204], the EC50 is below 100 nM.

`CCC(Nc1ncnc2[nH]cnc12)c1cc2cccc(C)c2c(=O)n1-c1ccccc1` (centres unmarked) [Compound 211] gave an EC50 below 100 nM.

Consider `Cc1cccc2cc(Cn3nc(-c4cccc(O)c4)c4c(N)ncnc43)n(-c3ccccc3C(C)C)c(=O)c12` [Compound 82], for which the concentration for a half-maximal effect (EC50) was below 100 nM.

On to `Cc1cccc2cc(Cn3nc(-c4ccc(F)c(O)c4)c4c(N)ncnc43)n(-c3ccccc3F)c(=O)c12` [Compound 9], for which the EC50 is below 1000 nM.

Turning to `Cc1cccc2cc(Cn3nc(-c4cn[nH]c4)c4c(N)ncnc43)n(-c3cccc(F)c3)c(=O)c12` [Compound 166], the half-maximal effective concentration (EC50) is below 100 nM.

The molecule `Cc1cccc2cc(Cn3nc(Br)c4c(N)ncnc43)n(-c3ccccc3F)c(=O)c12` [Compound 35] returned an EC50 below 1000 nM.

On to `Cc1ccccc1-n1c(Cn2nc(CF)c3c(N)ncnc32)cc2cccc(C)c2c1=O` [Compound 310], for which the EC50 is below 100 nM.

On to `CCC(Nc1ncnc2[nH]cnc12)c1cc2cccc(C)c2c(=O)n1-c1ccc(F)cc1` (centres unmarked) [Compound 223], for which the EC50 is below 100 nM.

The molecule `CC(C)n1c(Cn2nc(-c3cc(O)cc(F)c3)c3c(N)ncnc32)cc2cccc(F)c2c1=O` [Compound 134] gave an EC50 below 100 nM.

`Cc1cccc2cc(Cn3nc(-c4cn[nH]c4)c4c(N)ncnc43)n(-c3ccccc3)c(=O)c12` [Compound 206] gave a half-maximal effective concentration (EC50) below 100 nM.

`Cc1cccc2cc(Cn3nc(C#C[C@@H](C)O)c4c(N)ncnc43)n(-c3ccccc3Cl)c(=O)c12` [Compound 98]: the EC50 was below 1000 nM.

Molecule `Cc1cccc2cc(Cn3nc(-c4cc(O)cc(F)c4)c4c(N)ncnc43)n(-c3ccccc3Cl)c(=O)c12` [Compound 97] yielded a half-maximal effective concentration (EC50) below 100 nM.

Consider `CC(=O)Nc1nc2ccc(-c3nn(Cc4cc5cccc(C)c5c(=O)n4-c4ccccc4C)c4ncnc(N)c34)cc2[nH]1` [Compound 296], for which the EC50 is below 100 nM.

As for `Cc1cccc2cc(Cn3nc(-c4cc(O)cc(F)c4)c4c(N)ncnc43)n(-c3ccccc3OCCN3CCOCC3)c(=O)c12` [Compound 108], the EC50 was below 100 nM.

`COc1ccccc1-n1c(Cn2nc(-c3cc(O)cc(F)c3)c3c(N)ncnc32)cc2cccc(C)c2c1=O` [Compound 84] showed an EC50 below 100 nM.

`Cc1cccc2cc([C@H](C)Nc3nc(Cl)nc4[nH]cnc34)n(-c3ccccc3)c(=O)c12` [Compound 244] showed an EC50 below 100 nM.

The molecule `CCC(Nc1ncnc2[nH]cnc12)c1cc2ccccc2c(=O)n1-c1ccccc1` (centres unmarked) [Compound 221] displayed an EC50 below 100 nM.

Molecule `Cc1cccc2cc(Cn3nc(-c4cccc(O)c4)c4c(N)ncnc43)n(C)c(=O)c12` [Compound 124] showed a concentration giving a half-maximal response (EC50) below 1000 nM.

Molecule `Cc1cccc2cc(C(C)Nc3ncnc4[nH]cnc34)n(C(C)C)c(=O)c12` (centres unmarked) [Compound 209] had a concentration for a half-maximal effect (EC50) below 100 nM.

As for `Cc1cccnc1-n1c(Cn2nc(-c3ccc(Cl)c(O)c3)c3c(N)ncnc32)cc2cccc(C)c2c1=O` [Compound 72], the EC50 was below 100 nM.

`Cc1cccc2cc([C@H](C)Nc3ncnc4[nH]cnc34)n(-c3cccc(F)c3)c(=O)c12` [Compound 290]: the EC50 is below 100 nM.

The molecule `Cc1cccnc1-n1c(Cn2nc(-c3cc(O)cc(F)c3)c3c(N)ncnc32)cc2cccc(C)c2c1=O` [Compound 16] gave an EC50 below 100 nM.
